Earlier results, collected in patent US20050004044A1, “Use of orsaponin [3beta, 16beta, 17 alpha-trihydroxycholost-5-en-22-one 16-0-(2-0-4-methoxybenzoyl-beta-D-xylopyranosyl)-(1->3)-(2-0-acetyl-alpha-L-arabinopyranoside)] or OSW-1 and its derivatives for cancer therapeutics” (priority 2003, published 2005).

Test system: normal human pulmonary cells
Conditions: Mimaki et al., 1997; read-out: IC50, toxicity to normal human pulmonary cells; cited from earlier work

In the case of `COc1ccc(C(=O)OC2C(OC3C(O)COC(O[C@H]4C[C@H]5[C@@H]6CC=C7C[C@@H](O)CC[C@]7(C)[C@H]6CC[C@]5(C)[C@@]4(O)[C@H](C)C(=O)CCC(C)C)C3OC(C)=O)OCC(O)C2O)cc1` (stereo partly drawn) [OSW-1, 3β, 16β, 17 α-trihydroxycholost-5-en-22-one 16-O-(2-O-4-methoxybenzoyl-β-D-xylopyranosyl)-(1->3)-(2-O-acetyl-α-L-arabinopyranoside)], the IC50 is given as 1500 nM.
